These results are taken from ChEMBL document CHEMBL4414645, “Development of Robust 17(R),18(S)-Epoxyeicosatetraenoic Acid (17,18-EEQ) Analogues as Potential Clinical Antiarrhythmic Agents” (J Med Chem, 2019).

Data set [1] addresses T1, Cytochrome P450 2B6 (Homo sapiens, UniProt P20813).
T1 sequence (P20813 whole entry): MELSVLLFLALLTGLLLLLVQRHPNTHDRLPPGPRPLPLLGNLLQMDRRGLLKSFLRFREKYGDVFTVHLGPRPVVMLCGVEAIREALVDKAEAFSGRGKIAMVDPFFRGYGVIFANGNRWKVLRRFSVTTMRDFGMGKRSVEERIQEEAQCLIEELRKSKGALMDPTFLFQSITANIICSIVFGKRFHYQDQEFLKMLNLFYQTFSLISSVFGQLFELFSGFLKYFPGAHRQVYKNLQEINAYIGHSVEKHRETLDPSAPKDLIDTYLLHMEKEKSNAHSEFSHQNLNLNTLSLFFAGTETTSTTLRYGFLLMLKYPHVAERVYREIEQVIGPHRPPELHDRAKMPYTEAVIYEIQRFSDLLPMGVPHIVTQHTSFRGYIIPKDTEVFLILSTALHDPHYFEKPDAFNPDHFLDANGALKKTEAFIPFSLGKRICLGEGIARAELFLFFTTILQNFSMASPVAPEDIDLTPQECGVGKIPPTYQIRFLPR
Nature of the data set: Inhibition of human CYP2B6 by fluorescence method. In kind it is ADME.

Data set [2] concerns the target T2, Bifunctional epoxide hydrolase 2 (Homo sapiens) (UniProt P34913).
T2 sequence (whole entry): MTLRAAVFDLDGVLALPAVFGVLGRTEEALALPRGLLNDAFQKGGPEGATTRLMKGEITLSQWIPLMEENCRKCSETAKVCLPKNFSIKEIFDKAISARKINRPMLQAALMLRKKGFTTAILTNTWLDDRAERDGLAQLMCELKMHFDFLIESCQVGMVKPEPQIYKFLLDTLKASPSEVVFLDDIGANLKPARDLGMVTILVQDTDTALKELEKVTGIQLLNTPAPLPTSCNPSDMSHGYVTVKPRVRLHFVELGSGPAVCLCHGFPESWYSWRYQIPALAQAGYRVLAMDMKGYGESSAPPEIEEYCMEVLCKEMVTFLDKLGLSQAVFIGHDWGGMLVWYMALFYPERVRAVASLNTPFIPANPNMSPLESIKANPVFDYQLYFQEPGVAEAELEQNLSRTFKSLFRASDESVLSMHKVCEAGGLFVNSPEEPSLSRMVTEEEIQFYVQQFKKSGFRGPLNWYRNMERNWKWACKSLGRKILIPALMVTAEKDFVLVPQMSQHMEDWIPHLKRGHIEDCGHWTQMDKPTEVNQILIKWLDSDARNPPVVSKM
The note with it: Sf21, at 1 µM.
Description: Inhibition of N-terminal His-tagged recombinant human soluble epoxide hydrolase (2 to 555 residues) expressed in Sf21 insect cells at 1 uM using as 14,15-EET as substrate after 10 mins by reversed-phase HPLC assay relative to control

The nature of data set [3]: Apparent permeability across basolateral to apical side in human Caco2 cells at 10 uM after 15 to 90 mins by LC-ESI-MS/MS analysis. In kind it is ADME, cell-based. The settings on record: Caco-2. (Passage across Caco-2 layers is used to estimate intestinal permeability.)
A short description of data set [4]: Aqueous solubility of the compound in pH 7.4 potassium phosphate buffer at 2 mg after 1 to 24 hrs by RP-HPLC method. The note with it: potassium phosphate buffer, read-out: solubility. In kind it is physicochemical.
The target of data set [5] is T3, Cytochrome P450 2J2 (Homo sapiens, UniProt P51589).
T3 sequence (P51589 whole entry): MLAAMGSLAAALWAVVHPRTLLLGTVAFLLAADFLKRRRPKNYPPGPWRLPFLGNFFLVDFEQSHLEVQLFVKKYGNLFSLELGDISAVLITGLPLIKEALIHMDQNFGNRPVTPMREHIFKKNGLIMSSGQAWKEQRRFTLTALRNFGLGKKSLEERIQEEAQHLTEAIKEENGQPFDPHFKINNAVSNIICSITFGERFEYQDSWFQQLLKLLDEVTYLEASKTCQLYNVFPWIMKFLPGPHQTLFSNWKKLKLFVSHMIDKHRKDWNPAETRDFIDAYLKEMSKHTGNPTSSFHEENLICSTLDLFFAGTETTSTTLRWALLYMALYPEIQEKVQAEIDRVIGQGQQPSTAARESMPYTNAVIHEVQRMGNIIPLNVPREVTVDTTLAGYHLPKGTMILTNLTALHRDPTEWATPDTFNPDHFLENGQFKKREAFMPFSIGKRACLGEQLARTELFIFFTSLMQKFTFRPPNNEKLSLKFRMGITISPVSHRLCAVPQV
Put plainly: Inhibition of recombinant human CYP2J2 expressed in baculovirus infected insect cells co-expressing NADPH-CYP reductase and cytochrome b5 assessed as reduction in CYP2J2-mediated EPA epoxidation by measuring sum of EEQ and DiHETEs level at 1 to 50 uM using EPA as substrate preincubated for 5 mins followed by NADPH addition and measured after 15 mins by LCMS/MS analysis. It counts as ADME. The settings on record: recombinant enzyme, 0.25 h.

A short description of data set [6]: Protein binding in human plasma at 10 uM incubated for 60 mins by LC-ESI-MS/MS analysis. In kind it is ADME, cell-free. The note with it: read-out: PPB (converted).
The nature of data set [7]: Oral bioavailability in Sprague-Dawley (RjHan:SD) rat at 3 mg/kg administered via gavage by LC-MS analysis. In kind it is ADME, organism-based. The settings on record: in vivo.
Data set [8] is described as follows: Intrinsic clearance in human hepatocytes assessed per million cells at 1 uM measured up to 180 mins by LC-ESI-MS/MS analysis. In kind it is ADME, cell-based, Hepatocyte. The settings on record: read-out: CLH.
The nature of data set [9]: Negative chronotropic activity in Wistar rat neonatal cardiomyocytes assessed as change in basal beating rate after 7 mins by inverted microscopic method. In kind it is functional.
Data set [10] can be described thus: Half life in human hepatocytes at 1 uM measured up to 180 mins by LC-ESI-MS/MS analysis. In kind it is ADME, cell-based, Hepatocyte.
In data set [11] the target is T2, Bifunctional epoxide hydrolase 2 (Homo sapiens). Nature of the data set: Inhibition of N-terminal His-tagged recombinant human soluble epoxide hydrolase (2 to 555 residues) expressed in Sf21 insect cells at 10 uM using as 14,15-EET as substrate after 10 mins by reversed-phase HPLC assay relative to control.
Data set [12] in a line: Elimination half life in Sprague-Dawley (RjHan:SD) rat at 3 mg/kg, po administered via gavage by LC-MS analysis. In kind it is ADME, organism-based. The note with it: in vivo, read-out: beta t1/2 (converted).

Values after ≈ are worked out from the molar mass of the structure shown.

Broadly, the IC50 is the midpoint of a concentration-inhibition curve. Lower therefore signals higher potency. By inhibition is commonly meant the relative decrease from the control value, in per cent. One may read the Papp B→A as the apparent permeability from the basolateral to the apical side of a cell layer. Usually solubility stands for the dissolved amount per volume that the medium holds. As a reminder, the bioavailability is dose-corrected exposure relative to a reference, in per cent. Read a low bioavailability as little systemic uptake. Regarding `CNC(=O)C(=O)NCCCC/C=C\CCCCCCCOCC(=O)O`, in [1], the IC50 is over 50 µM. Also, the inhibition in data set [2] and in data set [11] was 0.8% throughout. In [3], the Papp B→A at 10 µM was found to be 15.8 ×10⁻⁶ cm/s. The solubility in [4] worked out at 1960 µg/mL (≈ 5500 µM). Besides, in data set [5], the “inhibition (INH)” value is listed as “Not Active”. Besides, the fraction unbound at 1 h, 10 µM in [6] is 0.0063. Besides, the bioavailability in data set [7] was determined as 100%. Further, the hepatocyte CLint at 1 µM in data set [8] was determined as 2.48 µL/min/1e6 cells. Besides, in data set [9], the Activity is recorded as -33.6 bpm. In data set [10], the half-life at 1 µM is 5.83 h. Besides, the half-life in data set [12] was 9.6 h.
`CNC(=O)C(=O)NCCCC/C=C\CCCCCCCCCc1nnn[nH]1` had an IC50 in [1] of over 50 µM. The inhibition is -1.3% in data set [2] and 1.9% in data set [11]. For the same compound, the apparent permeability from basolateral to apical (Papp B→A) at 10 µM in [3] was 8 ×10⁻⁶ cm/s. The solubility in [4] was determined as 40 µg/mL (≈ 106 µM). The “inhibition (INH)” value in [5] is given as “Active”. The fraction unbound at 1 h, 10 µM in [6] was 0.0003. In addition, the bioavailability in data set [7] was 35%. For the same compound, the hepatocyte CLint at 1 µM in data set [8] turned out to be 4.77 µL/min/1e6 cells. Further, in data set [9], the Activity is -30.9 bpm. Further, the half-life at 1 µM in [10] worked out at 3.02 h. Besides, the half-life in data set [12] is 3.6 h.
Turning to `CNC(=O)C(=O)NCCCC/C=C\CCCCCCCCCC(=O)O`, in [1], the IC50 is over 50 µM. The inhibition in data set [2] was -4.1%; in data set [11], -8.3%. The Papp B→A at 10 µM in [3] came to 2.3 ×10⁻⁶ cm/s. Moreover, the solubility in data set [4] was 80 µg/mL (≈ 226 µM). Also, the “inhibition (INH)” value in data set [5] is recorded as “Not Active”. The fraction unbound at 1 h, 10 µM in data set [6] is 0.0009. Moreover, the hepatocyte CLint at 1 µM in [8] was 16.5 µL/min/1e6 cells. This compound had a half-life at 1 µM in [10] of 0.874 h.
